Assay results as given in ChEMBL document CHEMBL5537133, “Rational design and optimization of novel 4-methyl quinazoline derivatives as PI3K/HDAC dual inhibitors with benzamide as zinc binding moiety for the treatment of acute myeloid leukemia” (Eur J Med Chem, 2024).

Legend:
[1] = test system: MV4-11; assay: Antiproliferative activity against human MV4-11 cells assessed as reduction in cell viability incubated for 72 hrs by CCK-8 assay; format: functional, cell-based; conditions: MV4-11, 72 h
[2] = molecular target: Phosphatidylinositol 4,5-bisphosphate 3-kinase catalytic subunit alpha isoform (Homo sapiens, UniProt P42336)
Phosphatidylinositol 4,5-bisphosphate 3-kinase catalytic subunit alpha isoform, sequence (P42336 whole entry, canonical isoform): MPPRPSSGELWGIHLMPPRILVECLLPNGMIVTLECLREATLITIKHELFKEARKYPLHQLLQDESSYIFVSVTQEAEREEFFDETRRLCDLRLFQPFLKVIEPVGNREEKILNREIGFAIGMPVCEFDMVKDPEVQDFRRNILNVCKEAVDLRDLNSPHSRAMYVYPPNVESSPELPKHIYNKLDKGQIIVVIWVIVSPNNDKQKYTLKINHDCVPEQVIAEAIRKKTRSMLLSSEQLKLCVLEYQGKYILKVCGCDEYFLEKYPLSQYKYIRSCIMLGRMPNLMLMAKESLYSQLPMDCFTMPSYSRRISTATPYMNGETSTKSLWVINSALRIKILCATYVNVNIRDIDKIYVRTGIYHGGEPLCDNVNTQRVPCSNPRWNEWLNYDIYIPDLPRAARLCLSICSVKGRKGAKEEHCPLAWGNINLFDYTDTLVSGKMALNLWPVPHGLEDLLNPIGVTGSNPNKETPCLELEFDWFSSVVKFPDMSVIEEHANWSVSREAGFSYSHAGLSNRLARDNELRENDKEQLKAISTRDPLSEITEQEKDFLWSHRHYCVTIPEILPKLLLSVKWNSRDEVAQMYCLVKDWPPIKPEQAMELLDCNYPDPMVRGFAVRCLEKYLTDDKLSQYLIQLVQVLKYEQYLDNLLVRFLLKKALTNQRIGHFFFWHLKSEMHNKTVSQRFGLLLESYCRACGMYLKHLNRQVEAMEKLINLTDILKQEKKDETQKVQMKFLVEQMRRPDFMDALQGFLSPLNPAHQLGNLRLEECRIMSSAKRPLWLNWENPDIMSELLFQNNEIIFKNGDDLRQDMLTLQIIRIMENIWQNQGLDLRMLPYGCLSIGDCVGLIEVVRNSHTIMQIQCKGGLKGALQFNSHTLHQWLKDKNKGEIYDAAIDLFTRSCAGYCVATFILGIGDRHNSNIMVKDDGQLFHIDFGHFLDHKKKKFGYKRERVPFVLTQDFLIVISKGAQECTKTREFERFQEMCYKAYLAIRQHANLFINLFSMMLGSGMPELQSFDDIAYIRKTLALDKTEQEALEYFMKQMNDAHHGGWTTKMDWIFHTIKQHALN
Description: Inhibition of PI3Kalpha (unknown origin) using PIP2 as substrate incubated for 1 hr in presence of ATP by ADP-Glo assay

[3] = molecular target: Histone deacetylase 1 (Homo sapiens, UniProt Q13547)
Histone deacetylase 1, sequence (Q13547 whole entry): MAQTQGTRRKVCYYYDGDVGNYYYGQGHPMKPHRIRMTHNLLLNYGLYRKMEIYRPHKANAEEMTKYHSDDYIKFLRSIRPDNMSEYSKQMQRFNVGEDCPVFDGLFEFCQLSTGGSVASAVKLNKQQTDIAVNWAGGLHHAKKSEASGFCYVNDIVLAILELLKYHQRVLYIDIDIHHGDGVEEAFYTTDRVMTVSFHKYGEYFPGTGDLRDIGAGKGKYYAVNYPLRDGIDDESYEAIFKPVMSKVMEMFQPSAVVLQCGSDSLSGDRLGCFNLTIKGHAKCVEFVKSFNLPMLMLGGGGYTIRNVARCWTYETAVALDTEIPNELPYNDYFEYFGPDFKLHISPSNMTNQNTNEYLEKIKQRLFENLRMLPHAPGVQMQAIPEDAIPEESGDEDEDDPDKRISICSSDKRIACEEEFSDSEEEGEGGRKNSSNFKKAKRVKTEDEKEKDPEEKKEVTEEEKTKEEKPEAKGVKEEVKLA
Description: Inhibition of C-terminal 6His-FLAG-tagged human recombinant HDAC1 (1 to 482 residues) expressed in Sf9 cells using Ac-peptide as substrate preincubated for 15 mins followed by substrate addition and measured after 1 hr by plate reader analysis

[4] = test system: NB-4; assay: Antiproliferative activity against human NB4 cells assessed as reduction in cell viability incubated for 72 hrs by CCK-8 assay; format: functional, cell-based; conditions: NB-4, 72 h
[5] = test system: HL-60; assay: Antiproliferative activity against human HL-60 cells assessed as reduction in cell viability incubated for 72 hrs by CCK-8 assay; format: functional, cell-based; conditions: HL-60, 72 h
[6] = test system: DOHH-2; assay: Antiproliferative activity against human DOHH-2 cells assessed as reduction in cell viability incubated for 72 hrs by CCK-8 assay; format: functional, cell-based; conditions: DOHH-2, 72 h
[7] = test system: Ramos; assay: Antiproliferative activity against human Ramos cells assessed as reduction in cell viability incubated for 72 hrs by CCK-8 assay
[8] = test system: Raji; assay: Antiproliferative activity against human Raji cells assessed as reduction in cell viability incubated for 72 hrs by CCK-8 assay; format: functional, cell-based
[9] = Antiproliferative activity against human MINO cells assessed as reduction in cell viability incubated for 72 hrs by CCK-8 assay
[10] = test system: L1210; assay: Antiproliferative activity against mouse L1210 cells assessed as reduction in cell viability incubated for 72 hrs by CCK-8 assay; format: functional, cell-based; conditions: L1210, 72 h
[11] = test system: Friend leukemia cell line; assay: Antiproliferative activity against mouse Friend leukemia cell line assessed as reduction in cell viability incubated for 72 hrs by CCK-8 assay; format: functional, cell-based
[12] = test system: BaF3; assay: Antiproliferative activity against mouse BaF3 cells assessed as reduction in cell viability incubated for 72 hrs by CCK-8 assay; format: functional, cell-based; conditions: BaF3, 72 h
[13] = test system: EL4; assay: Antiproliferative activity against mouse EL4 cells assessed as reduction in cell viability incubated for 72 hrs by CCK-8 assay; format: functional, cell-based; conditions: EL4, 72 h
[14] = test system: MV4-11; assay: Antiproliferative activity against human MV4-11 cells assessed as reduction in cell viability incubated for 72 hrs in presence of chidamide by CCK-8 assay; format: functional, cell-based; conditions: MV4-11, 72 h

Which IC50 [1] does the source give for `COc1ncc(-c2cc(OCCCC(=O)Nc3ccccc3N)c3ncnc(C)c3c2)cc1NS(=O)(=O)c1ccc(F)cc1F` here?
The IC50 was 0.03 µM.

What about the IC50 [2] of the same compound?
Its IC50 is 0.00023 µM.

And the IC50 [3]?
Its IC50 is 4.71 µM.

With `Nc1ccc(F)cc1NC(=O)c1ccc(CNC(=O)/C=C/c2cccnc2)cc1` as the compound, how does the IC50 [1] read?
Its IC50 is 0.32 µM.

What about the IC50 [4] of the same compound?
The IC50 was 1.9 µM.

What about the IC50 [5] of the same compound?
Its IC50 is 1.3 µM.

What about the IC50 [6] of the same compound?
Its IC50 is 4.3 µM.

And the IC50 [7]?
Its IC50 is over 10 µM.

What about the IC50 [8] of the same compound?
The IC50 was 6.9 µM.

And the IC50 [9]?
Its IC50 is 2.1 µM.

What about the IC50 [10] of the same compound?
The IC50 was over 10 µM.

What about the IC50 [11] of the same compound?
Its IC50 is 0.5 µM.

What about the IC50 [12] of the same compound?
The IC50 was 1.5 µM.

What about the IC50 [13] of the same compound?
Its IC50 is 5.2 µM.

What does the source list for `COc1ncc(-c2cc(OCCCCCCCCC(=O)Nc3ccccc3N)c3ncnc(C)c3c2)cc1NS(=O)(=O)c1ccc(F)cc1F`?
IC50 [1]: 0.01 µM; IC50 [2]: 0.00039 µM; IC50 [3]: 0.253 µM

Which IC50 [12] does the source give for `O=C(CCCCCCC(=O)Nc1ccccc1)NO` [VORINOSTAT] here?
Its IC50 is 0.8 µM.

What does the source list for `COc1ncc(-c2cc(OCCCCCC(=O)Nc3ccccc3N)c3ncnc(C)c3c2)cc1NS(=O)(=O)c1ccc(F)cc1F`?
IC50 [1]: 0.01 µM; IC50 [2]: 0.00021 µM; IC50 [3]: 1.31 µM

For `COc1ncc(-c2cc(OCCCCCCCCCC(=O)Nc3ccccc3N)c3ncnc(C)c3c2)cc1NS(=O)(=O)c1ccc(F)cc1F`, which IC50 [1] is on record?
Its IC50 is 0.06 µM.

And the IC50 [2]?
The IC50 was 0.0004 µM.

What about the IC50 [3] of the same compound?
The IC50 was 3.03 µM.

With `Cc1nc(NC(=O)N2CCC[C@H]2C(N)=O)sc1-c1ccnc(C(C)(C)C(F)(F)F)c1` [ALPELISIB] as the compound, how does the IC50 [1] read?
The IC50 was 3.5 µM.

What about the IC50 [14] of the same compound?
The IC50 was 0.19 µM.
